In ChEMBL document CHEMBL3091440, “Heptaoxygenated xanthones as anti-austerity agents from Securidaca longepedunculata” (2013):
Activity calls are given as the source filed them. The rule behind the calls is not given here.

Columns and labels:
[1] = (§1) Cytotoxicity against human PANC1 cells assessed as cell viability after 24 hrs by WST8 assay; assay type: functional, PANC-1
PANC-1 [2] = test: as §1; assay type: functional
PANC-1 [3] = test: Induction of apoptosis in human PANC1 cells grown in glucose deprived medium after 24 hrs by phase contrast microscopy; assay type: functional, cell-based
PANC-1 [4] = test: Induction of apoptosis in human PANC1 cells at 50 uM after 24 hrs by Annexin V/propidium iodide staining-based fluorescence microscopy; assay type: functional, cell-based
PANC-1 [5] = test: Induction of apoptosis in human PANC1 cells at 50 uM after 24 hrs by phase contrast microscopy; assay type: functional, cell-based
PANC-1 [6] = test: Induction of apoptosis in human PANC1 cells grown in glucose/amino acid deprived medium after 24 hrs by phase contrast microscopy; assay type: functional, cell-based

SMILES | PC50 [1] [µM] | Activity (PANC-1 [2]) | Activity (PANC-1 [3]) | Activity (PANC-1 [4]) | Activity (PANC-1 [5]) | Activity (PANC-1 [6])
COc1ccc2oc3cc(O)cc(OC)c3c(=O)c2c1OC | >100 | Dose-dependent effect |  |  |  | 
COc1cc(OC)c2c(=O)c3ccc(O)c(O)c3oc2c1 | >100 | Dose-dependent effect |  |  |  | 
COc1ccc2oc3ccc(O)c(OC)c3c(=O)c2c1O | 51.4 | Dose-dependent effect |  |  |  | 
COc1cc(O)c2c(=O)c3cc(O)ccc3oc2c1 | >100 | Dose-dependent effect |  |  |  | 
COc1cc(O)c2c(=O)c3c(OC)c(OC)ccc3oc2c1OC | 73.3 | Dose-dependent effect |  |  |  | 
COc1c(O)ccc(C(=O)c2ccccc2)c1O | >100 | Dose-dependent effect |  |  |  | 
COc1c(C(=O)c2ccccc2)ccc2c1OCO2 | >100 | Dose-dependent effect |  |  |  | 
COc1c(OC)c(OC)c2c(=O)c3c(O)cc(O)c(OC)c3oc2c1O | >100 | Dose-dependent effect |  |  |  | 
COc1cc(OC)c2c(=O)c3c(OC)c(O)ccc3oc2c1 | >100 | Dose-dependent effect |  |  |  | 
O=c1c2ccc(O)c(O)c2oc2cccc(O)c12 | >100 | Dose-dependent effect |  |  |  | 
COc1c(OC)c(O)c2c(=O)c3c(OC)cc(O)c(OC)c3oc2c1OC | 17.4 | Dose-dependent effect | Dose-dependent effect | Active | inactive | 
COc1cccc(C(=O)c2ccc(O)cc2O)c1 | >100 | Dose-dependent effect |  |  |  | 
COc1cc(O)c2c(=O)c3c(OC)c(O)ccc3oc2c1OC | 87.4 | Dose-dependent effect |  |  |  | 
COc1cccc(O)c1C(=O)OCc1ccccc1 | >100 | Dose-dependent effect |  |  |  | 
COc1cc(OC)c2c(=O)c3c(OC)c(OC)ccc3oc2c1OC | 93.6 | Dose-dependent effect |  |  |  | 
COc1cc(O)c2c(=O)c3c(OC)cc(OC)cc3oc2c1 | >100 | Dose-dependent effect |  |  |  | 
COc1cc(O)c2c(=O)c3c(OC)c(OC)c(OC)c(O)c3oc2c1OC | >100 | Dose-dependent effect |  |  |  | 
COc1cc(OC)c(C(=O)c2ccccc2)cc1OC | >100 | Dose-dependent effect |  |  |  | 
CC(=O)O[C@H]1C(=O)[C@@]2(C)[C@H]([C@H](OC(=O)c3ccccc3)[C@]3(O)C[C@H](OC(=O)[C@H](O)[C@@H](NC(=O)c4ccccc4)c4ccccc4)C(C)=C1C3(C)C)[C@]1(OC(C)=O)CO[C@@H]1C[C@@H]2O [PACLITAXEL] | >100 |  |  |  |  | 
COc1c(O)ccc(C(=O)c2ccccc2)c1OC | 81.3 | Dose-dependent effect |  |  |  | 
COc1c(O)cc2oc3ccccc3c(=O)c2c1O | 81.2 | Dose-dependent effect |  |  |  | 
COc1cc2oc3cccc(OC)c3c(=O)c2cc1OC | >100 | Dose-dependent effect |  |  |  | 
COc1cccc(O)c1C(=O)O | >100 | Dose-dependent effect |  |  |  | 
COc1cc(C[C@H]2C(=O)OC[C@@H]2Cc2ccc(OC)c(OC)c2)ccc1O [ARCTIGENIN] | 0.5 |  |  |  |  | 
COc1cc(OC)c2c(=O)c3ccc(O)c(OC)c3oc2c1 | 93.1 | Dose-dependent effect |  |  |  | 
O=c1c2ccc(O)cc2oc2cccc(O)c12 | >100 | Dose-dependent effect |  |  |  | 
COc1ccc2oc3cccc(O)c3c(=O)c2c1 | 42.7 | Dose-dependent effect |  |  |  | 
COc1c(O)cccc1C(=O)OCc1ccccc1 | >100 | Dose-dependent effect |  |  |  | 
COc1cc(O)c2c(=O)c3c(OC)c4c(c(OC)c3oc2c1OC)OCO4 | 78.1 | Dose-dependent effect |  |  |  | 
COc1c(OC)c(O)c2c(=O)c3c(O)cc(O)c(OC)c3oc2c1OC | 22.7 | Dose-dependent effect |  | Active | inactive | Dose-dependent effect
